Results on 4 compounds are retold here after US7534871B2, “Preparation and use of carbohydrate-based bicyclic ring structures with antimicrobial and cytostatic activity” (Kemin Pharma B.V.B.A., priority 2004, dated 2009).

For one assay, the system named is VRE ATCC700221. Description: Anti-bacterial activity, Bioscreen C growth curve: VRE. The assay is classed as cell-based, vancomycin-resistant Enterococcus (VRE). To be noted: Enterococcus, 35° C., 16 hours, negative control = 100, read-out: % of growth at 25 PPM compared to the negative control, VRE ATCC700221. Here is the method:
(§1) For the determination of the anti-bacterial and anti-fungal activity the Bioscreen C Analyser Labsystems, Finland, was used. This is an automated reader-incubator. It measures growth continuously by vertical photometry (optical density), processes the data and provides a print out of the results. The area under the growth curve is automatically determined via the Biolink software.
(§2) The inoculum size of the bacteria is standardized to approximately 5×10^5 CFU/ml.
(§3) For bacteria, the 100-honey-well plates containing test chemical, Mueller-Hinton broth and inoculum (=sample) are incubated at 35° C. for 16 hours. Also wells without inoculum are incubated (=blanco). Yeasts are incubated 35° C. for 24 hours in RPMI 1640+MOPS buffer at 165 mM. Moulds also in RPMI 1640+MOPS buffer at 165 mM are incubated 25° C. for 5 days. All micro-organisms are screened against a known concentration of the reference antibiotics or antimycotics such as vancomycin, penicillin G, gentamicin or amphotericin B. The growth curve and the area under the growth curve can be determined using the Biolink software; this is illustrated in FIG. 1.
(§4) The area of the blanco is subtracted from the area of the sample, this number (delta) gives us an indication of the biological activity of the molecules tested and can be expressed as a % of growth at a specific dose compared to a negative control that has a value of 100, illustrated in FIG. 2. Screening of each dose of a specific compound is repeated 5 times. The dose used for all new molecules in all tests is 25 PPM or 25 μg/ml.
(§5) In Table 4 the results of the anti-bacterial activity is given for the new molecules. The micro-organisms used are Staphylococcus aureus, MRSA, VRE, Enterococcus faecalis, Salmonella typhimurium and Pseudomonas aeruginosa.
As to `CO[C@@H]1[C@@H](OC)[C@H](c2ccccc2)O[C@@H]2COC(=O)CCC=CCCC(=O)O[C@@H]12` [KPE00001040], the activity at 25 ppm worked out at 83.4%.

As to `CO[C@@H]1[C@@H](OC)[C@H](Sc2ccccc2)O[C@@H]2CNC(=O)CCC=CCCC(=O)O[C@@H]12` [KPE00001041], the activity at 25 ppm was determined as 93%.

In the case of `CO[C@@H]1[C@@H](OC)[C@H](Sc2ccccc2)O[C@@H]2CNC(=O)CC/C=C/CCCO[C@@H]12` [KPE00001042], the activity at 25 ppm amounted to 96%.

Turning to `CO[C@H]1[C@H](OC)[C@H](OC)COC/C=C/COC[C@H]2OC[C@H](OC)[C@@H](OC)[C@@H]2OC(=O)NC[C@@H]1OC` [KPE00001056], the activity at 25 ppm stood at 91%.

In the next assay the test system is Candida albicans IHEM 10284 - ATCC 24433. Kind of assay: Anti-fungal activity, Bioscreen C growth curve: Candida albicans (yeast). The assay is classed as cell-based. To be noted: Candida albicans, ATCC24433; 25 PPM; 35° C., 24 hours; negative control = 100; read-out: % of growth at a dose of 25 PPM compared to the negative control, Candida albicans IHEM 10284 - ATCC 24433. The procedure:
as §1
The inoculum size of the yeast is standardized to 0.5-2.5×10^3 CFU/ml.
as §3, §4
(§6) In Table 5 the anti-fungal activity is given for the new molecules. The micro-organisms used were Candida albicans (a typical yeast) and Microsporum gypseum (a typical mold).
(§7) Also for the determination of the anti-fungal activity the Bioscreen C Analyser Labsystems Oy, Finland was used. It measures growth continuously by vertical photometry (optical density), processes the data and provides a print out of the results. The area under the growth curve is automatically determined via the Biolink software.
(§8) The inoculum size of the yeast is standardized to 0.5-2.5×10^3 CFU/ml. The inoculum size of the mould is standardized to 0.4-5.0×10^4 CFU/ml. Yeasts are incubated 35° C. for 24 hours in RPMI 1640+MOPS buffer at 165 mM. Moulds also in RPMI 1640+MOPS buffer at 165 mM are incubated 25° C. for 5 days.
(§9) As a control, all micro-organisms are screened against some reference antibiotics with known MIC. Screening of each dose of a specific compound is repeated 5 times.
Turning to `CO[C@@H]1[C@@H](OC)[C@H](c2ccccc2)O[C@@H]2COC(=O)CCC=CCCC(=O)O[C@@H]12` [KPE00001040], the activity at 25 ppm was determined as 101%.

For `CO[C@@H]1[C@@H](OC)[C@H](Sc2ccccc2)O[C@@H]2CNC(=O)CCC=CCCC(=O)O[C@@H]12` [KPE00001041], the activity at 25 ppm is 78.1%.

With `CO[C@@H]1[C@@H](OC)[C@H](Sc2ccccc2)O[C@@H]2CNC(=O)CC/C=C/CCCO[C@@H]12` [KPE00001042], the activity at 25 ppm came out at 90.3%.

With `CO[C@H]1[C@H](OC)[C@H](OC)COC/C=C/COC[C@H]2OC[C@H](OC)[C@@H](OC)[C@@H]2OC(=O)NC[C@@H]1OC` [KPE00001056], the activity at 25 ppm came to 101%.

In another assay the test system is MRSA ATCC33591. Description: Anti-bacterial activity, Bioscreen C growth curve: MRSA. The assay is classed as cell-based, methicillin-resistant Staphylococcus aureus (MRSA). To be noted: Staphylococcus aureus, ATCC 33591 / LMG10147 / MRSA; 25 PPM; 35° C., 16 hours; negative control = 100; read-out: % of growth at 25 PPM compared to the negative control, MRSA ATCC33591 LMG10147. The procedure: as §1, §2, §3, §4, §5
For the compound `CO[C@@H]1[C@@H](OC)[C@H](c2ccccc2)O[C@@H]2COC(=O)CCC=CCCC(=O)O[C@@H]12` [KPE00001040], the activity at 25 ppm was found to be 99.7%.

Consider `CO[C@@H]1[C@@H](OC)[C@H](Sc2ccccc2)O[C@@H]2CNC(=O)CCC=CCCC(=O)O[C@@H]12` [KPE00001041], for which the activity at 25 ppm worked out at 75.6%.

As for `CO[C@@H]1[C@@H](OC)[C@H](Sc2ccccc2)O[C@@H]2CNC(=O)CC/C=C/CCCO[C@@H]12` [KPE00001042], the activity at 25 ppm turned out to be 104%.

Turning to `CO[C@H]1[C@H](OC)[C@H](OC)COC/C=C/COC[C@H]2OC[C@H](OC)[C@@H](OC)[C@@H]2OC(=O)NC[C@@H]1OC` [KPE00001056], the activity at 25 ppm is 113%.

The assay is the same for the next values; noted with them: conclusion on Table 4.
Turning to `CO[C@@H]1[C@@H](OC)[C@H](Sc2ccccc2)O[C@@H]2CNC(=O)CCC=CCCC(=O)O[C@@H]12` [KPE00001041], the “anti-bacterial activity against gram-positive bacteria including MRSA, in words” value is “good anti-bacterial activity”.

The next assay deals with E. faecalis ATTC29212 LMG 8222. Description: Anti-bacterial activity, Bioscreen C growth curve: E. faecalis. Format: cell-based. To be noted: Enterococcus faecalis, LMG8222, 35° C., 16 hours, negative control = 100, read-out: % of growth at 25 PPM compared to the negative control, E. faecalis ATTC29212 LMG 8222. Here is the method: as §1, §2, §3, §4, §5
In the case of `CO[C@@H]1[C@@H](OC)[C@H](c2ccccc2)O[C@@H]2COC(=O)CCC=CCCC(=O)O[C@@H]12` [KPE00001040], the activity at 25 ppm is 85.1%.

Regarding `CO[C@@H]1[C@@H](OC)[C@H](Sc2ccccc2)O[C@@H]2CNC(=O)CCC=CCCC(=O)O[C@@H]12` [KPE00001041], the activity at 25 ppm was determined as 68.2%.

Consider `CO[C@@H]1[C@@H](OC)[C@H](Sc2ccccc2)O[C@@H]2CNC(=O)CC/C=C/CCCO[C@@H]12` [KPE00001042], for which the activity at 25 ppm worked out at 93.3%.

For `CO[C@H]1[C@H](OC)[C@H](OC)COC/C=C/COC[C@H]2OC[C@H](OC)[C@@H](OC)[C@@H]2OC(=O)NC[C@@H]1OC` [KPE00001056], the activity at 25 ppm is 111%.

The next assay has as its system S. typhimurium ATTC700408. Kind of assay: Anti-bacterial activity, Bioscreen C growth curve: S. typhimurium. Format: cell-based. To be noted: Salmonella enterica, LMG16217 / TYPHIMURIUM, 35° C., 16 hours, negative control = 100, read-out: % of growth at 25 PPM compared to the negative control, S. typhimurium ATTC700408 LMG16217. The procedure:
as §1, §2, §3, §4, §5
On to `CO[C@@H]1[C@@H](OC)[C@H](c2ccccc2)O[C@@H]2COC(=O)CCC=CCCC(=O)O[C@@H]12` [KPE00001040], for which the activity at 25 ppm was 89%.

Consider `CO[C@@H]1[C@@H](OC)[C@H](Sc2ccccc2)O[C@@H]2CNC(=O)CCC=CCCC(=O)O[C@@H]12` [KPE00001041], for which the activity at 25 ppm is 96.6%.

Turning to `CO[C@@H]1[C@@H](OC)[C@H](Sc2ccccc2)O[C@@H]2CNC(=O)CC/C=C/CCCO[C@@H]12` [KPE00001042], the activity at 25 ppm came to 98%.

For the compound `CO[C@H]1[C@H](OC)[C@H](OC)COC/C=C/COC[C@H]2OC[C@H](OC)[C@@H](OC)[C@@H]2OC(=O)NC[C@@H]1OC` [KPE00001056], the activity at 25 ppm was determined as 93.7%.

The next assay deals with S. aureus ATTC29213 LMG10147. Kind of assay: Anti-bacterial activity, Bioscreen C growth curve: S. aureus. Format: cell-based. To be noted: Staphylococcus aureus, 35° C., 16 hours, negative control = 100, read-out: % of growth at 25 PPM compared to the negative control, S. aureus ATTC29213 LMG10147. The procedure:
as §1, §2, §3, §4, §5
As for `CO[C@@H]1[C@@H](OC)[C@H](c2ccccc2)O[C@@H]2COC(=O)CCC=CCCC(=O)O[C@@H]12` [KPE00001040], the activity at 25 ppm worked out at 94%.

`CO[C@@H]1[C@@H](OC)[C@H](Sc2ccccc2)O[C@@H]2CNC(=O)CCC=CCCC(=O)O[C@@H]12` [KPE00001041]: the activity at 25 ppm was 56.7%.

For `CO[C@@H]1[C@@H](OC)[C@H](Sc2ccccc2)O[C@@H]2CNC(=O)CC/C=C/CCCO[C@@H]12` [KPE00001042], the activity at 25 ppm was 97%.

Regarding `CO[C@H]1[C@H](OC)[C@H](OC)COC/C=C/COC[C@H]2OC[C@H](OC)[C@@H](OC)[C@@H]2OC(=O)NC[C@@H]1OC` [KPE00001056], the activity at 25 ppm turned out to be 105%.

The next assay has as its system Microsporum gypseum IHEM 3999 - ATCC 14683. Kind of assay: Anti-fungal activity, Bioscreen C growth curve: Microsporum gypseum (mold). The assay is classed as cell-based. To be noted: Nannizzia gypsea, ATCC14683, 120 h; 25 PPM; 25° C., 5 days; negative control = 100; read-out: % of growth at a dose of 25 PPM compared to the negative control, Microsporum gypseum IHEM 3999 - ATCC 14683. The procedure:
as §1
The inoculum size of the mould is standardized to 0.4-5.0×10^4 CFU/ml.
as §3, §4, §6, §7, §8, §9
Regarding `CO[C@@H]1[C@@H](OC)[C@H](c2ccccc2)O[C@@H]2COC(=O)CCC=CCCC(=O)O[C@@H]12` [KPE00001040], the activity at 25 ppm was 64%.

As to `CO[C@@H]1[C@@H](OC)[C@H](Sc2ccccc2)O[C@@H]2CNC(=O)CCC=CCCC(=O)O[C@@H]12` [KPE00001041], the activity at 25 ppm amounted to 81%.

In the case of `CO[C@@H]1[C@@H](OC)[C@H](Sc2ccccc2)O[C@@H]2CNC(=O)CC/C=C/CCCO[C@@H]12` [KPE00001042], the activity at 25 ppm worked out at 79%.

Regarding `CO[C@H]1[C@H](OC)[C@H](OC)COC/C=C/COC[C@H]2OC[C@H](OC)[C@@H](OC)[C@@H]2OC(=O)NC[C@@H]1OC` [KPE00001056], the activity at 25 ppm was found to be 77%.

For a further assay, the system named is P. aeruginosa ATCC27853 LMG16217. Description: Anti-bacterial activity, Bioscreen C growth curve: P. aeruginosa. To be noted: Pseudomonas aeruginosa; 25 PPM; 35° C., 16 hours; negative control = 100; read-out: % of growth at 25 PPM compared to the negative control, P. aeruginosa ATCC27853 LMG16217. The assay is classed as cell-based, Pseudomonas aeruginosa. The procedure: as §1, §2, §3, §4, §5
For `CO[C@@H]1[C@@H](OC)[C@H](c2ccccc2)O[C@@H]2COC(=O)CCC=CCCC(=O)O[C@@H]12` [KPE00001040], the activity at 25 ppm is 78.5%.

In the case of `CO[C@@H]1[C@@H](OC)[C@H](Sc2ccccc2)O[C@@H]2CNC(=O)CCC=CCCC(=O)O[C@@H]12` [KPE00001041], the activity at 25 ppm worked out at 83.3%.

Turning to `CO[C@@H]1[C@@H](OC)[C@H](Sc2ccccc2)O[C@@H]2CNC(=O)CC/C=C/CCCO[C@@H]12` [KPE00001042], the activity at 25 ppm was determined as 94.7%.

On to `CO[C@H]1[C@H](OC)[C@H](OC)COC/C=C/COC[C@H]2OC[C@H](OC)[C@@H](OC)[C@@H]2OC(=O)NC[C@@H]1OC` [KPE00001056], for which the activity at 25 ppm is 106%.
